In US9657081B2, “Inhibiting peptides derived from triggering receptor expressed on myeloid cells-1 (TREM-1) TREM-like transcript 1 (TLT-1) for treatment of cardiovascular diseases” (INSERM (Institut National de la Sante et de la Recherche …, priority 2013, dated 2017):

How the values were obtained:
[1] = system: TREM-1; experiment: Rat model of myocardial ischemia-reperfusion, physiologic parameters and micro-TEP imaging; type: in vivo
Method: Adult male Wistar rats (360-380 g) were used. All rats were anaesthetized with ketamine (100 mg/kg, intramuscularly) and mechanically ventilated. After a left thoracotomy, the left coronary artery was identified and ligated with a 6-0 prolene surgical suture. LAD occlusion was confirmed by a change in myocardial color from red to white in the ischemia area (Left ventricle). The chest was closed and the skin was sutured with 6-0 silk. The animals returned to their cage where they were supervised until their complete recovery. The postoperative mortality rate of all rats was 20%.
After surgical LAD occlusion, importance of ischemic area was evaluated by micro-TEP imaging. Animals were then randomized to receive peptide (5 mg/kg) every 24 h for 5 days or placebo (vehicle).
A further evaluation was performed at 6 weeks by micro-TEP imaging and conductance catheter (Millar) in order to study the treatment effect on myocardial remodeling and myocardial function.
Animals received same surgery than in permanent ischemia, but with reperfusion of ischemic area by release of the LAD ligation after 60 minutes of ischemia. The same protocol as described above was then applied.
In all animals, approximately 70 MBq of ^18F-FDG (in a 0.3-0.5 ml volume) was injected intravenously and under a short anaesthesia (1.5-2.5% of isoflurane inhalation) 60 min prior to initiating PET recording. Recording was acquired in list mode under continuous anaesthesia by isoflurane, using a dedicated small animal PET system (Inveon, Siemens, Knoxville, Tenn., USA). The animals were positioned in the prone position and placed on a heating pad to maintain a body temperature within the normal range. The animals were connected to a standard ECG monitor by three electrodes placed on the inner surfaces of limb extremities. Recording times were 20 min for 18F emission and 6 min for 57Co transmission. The coincidence timing window was set to 3.4 ns and the energy window between 350 and 650 keV. Images were reconstructed in 16 cardiac intervals, providing a temporal resolution of 11-15 ms for common heart rate values. Under these conditions, the axial spatial resolution was less than 1.5 mm. In addition, on LV rat phantoms obtained by a stereolithography process, a precise determination of the actual cavity volumes was provided by FDG PET images above the level of 100 μl corresponding to the lower limit for the LV endsystolic volume in adult.
To investigate the role of TREM-1- and TLT-1-derived peptides in a more relevant model of MI, we performed a transient coronary artery ligation (ischemia-reperfusion model: IR) in rats. After randomisation, animals were then imaged under anaesthesia (micro-TEP) and administered with TREM-1- and TLT-1-derived peptides (3 mg/kg daily for 5 days i.p.) or LR12-scrambled peptide. Imaging was then repeated at 6 weeks before we studied cardiac function by using a conductance catheter (Millar).

[2] = biological target: T1, TREM-1 (Sus scrofa, UniProt Q6TYI6); experiment: Mini-pig model of sepsis (peritonitis): sepsis-induced hypotension and cardiac dysfunction; type: in vivo, mini-pig (Sus scrofa domestica)
T1 construct: endogenous in cells; host or cells: living mini-pigs (in vivo)
T1 sequence (Q6TYI6 21-238): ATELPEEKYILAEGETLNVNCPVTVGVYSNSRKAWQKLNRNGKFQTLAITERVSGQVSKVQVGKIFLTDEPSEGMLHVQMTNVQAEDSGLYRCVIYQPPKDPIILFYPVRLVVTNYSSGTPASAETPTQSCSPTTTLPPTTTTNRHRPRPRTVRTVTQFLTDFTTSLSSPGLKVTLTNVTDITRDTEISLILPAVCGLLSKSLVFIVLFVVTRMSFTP
Method: Adult male mini-pigs (Sus scrofa domestica, Vietnamese pot-belied mini-pigs, 30-40 kg) were purchased from Elevage Ferry (Vosges, France). Before surgery, animals were fasted overnight with free access to water. Preanesthesia was performed through intramuscular administration of ketamine (10 mg/kg) and midazolam (0.1 mg/kg). Anesthesia was induced and maintained with intravenous pentobarbital (initial bolus: 10 mg/kg, and continuous administration 6-8 mg/kg/h), intermittent sufentanyl (10 μg), and pancuronium (4 mg) if necessary. Animals were mechanically ventilated (tidal volume 8 ml/kg, PEEP 5 cm H2O, FiO2 0.21, respiratory rate 14-16 breaths/min adjusted to maintain normocapnia). Left jugular vein was exposed and a triple-lumen line was inserted. Right jugular vein was also catheterized and a Swan-Ganz catheter was positioned allowing the continuous recording of cardiac output, SvO2, and right atria and pulmonary arterial pressures. A right carotid arterial catheter was inserted for continuous measurement of arterial pressure. A catheter in the bladder allowed urine collection.
After instrumentation, a midline laparotomy was performed to collect feces from the left colon: 1.5 g/kg were suspended in 200 mL of 0.9% NaCl and incubated at 38° C. for 2 hours. After surgery, a tube was left in place for the peritonitis induction and ascites drainage.
After surgery, animals were allowed to recover for 2 hours before baseline measurements (defined as ‘H0’). Normal saline was continuously administered (10 mL/kg/h) throughout the study. Body temperature was kept constant (±1° C.) using heating pads or cooling.
After baseline data collection (H0), peritonitis was induced by administration of autologous feces through the abdominal tube which was subsequently maintained clamped. After 2 hours (H2), animals were randomized to receive LR12 (LR12 group, n=6) or the vehicle (normal saline) alone (Control group, n=5). A bolus of 5 mg/kg (in 60 mL) was intravenously delivered over 30 minutes, then a 1 mg/kg/h (15 mL/h) infusion was started and lasted throughout the study period.
Animal care was then provided by an experienced intensive care physician with strict adhesion to the following guidelines throughout the study period:
i) Hemodynamic targets: the main objective was to maintain mean arterial pressure (MAP) above 85 mmHg. To achieve this goal and in addition to the maintenance 0.9% NaCl administration (7 mL/kg/h), hydroxyethyl starch (up to 20 mL/kg for the entire study period) (HES 130/0.4, Voluven®, Fresenius) was allowed provided that central venous pressure (CVP) and pulmonary artery occlusion pressure (PAOP) was <18 mmHg. When hydroxyethyl starch maximal volume was reached, a continuous infusion of norepinephrine was started up to 10 μg/kg/min.
Hemodynamic parameters were continuously monitored including MAP, mean pulmonary artery pressure (MPAP), right atrial pressure (RAP), cardiac output (CO), cardiac index (CI), and SvO2. Systemic oxygen delivery (DO2) and systemic oxygen uptake (VO2) were calculated by the Swan-Ganz monitor. Cardiac Power Index (W/m^2) was calculated as MAP×CI/451 (24).

## LQEEDAGEYGCM (listed as Homo sapiens) [TLT1-LR12]
[1]; Baseline
  Body weight: 391 ± 9 g
  EDV: 511 ± 55 µL
  EF: 47 ± 6%
  ESV: 251 ± 75 µL
  Heart rate: 343 ± 43 bpm
  MI Areas: 41 ± 20 % of LV
  Systolic blood pressure: 134 ± 2 mmHg
[1]; Six weeks
  Body weight: 439 ± 12 g
  Body weight, difference with baseline: 48 ± 10 g
  EDV: 620 ± 34 µL
  EDV, difference with baseline: 109 ± 55 µL
  EF: 56 ± 5%
  EF, difference with baseline: 9 ± 7%
  ESV: 273 ± 47 µL
  ESV, difference with baseline: 22 ± 18 µL
  Heart rate: 370 ± 25 bpm
  Heart rate, difference with baseline: 27 ± 22 bpm
  MI Areas: 3 ± 9 % of LV
  MI Areas, difference with baseline: −38 ± 8 % of LV
  Systolic blood pressure: 167 ± 6 mmHg
  Systolic blood pressure, difference with baseline: 33 ± 6 mmHg
[2]; mini-pig peritonitis
  animals in which norepinephrine was started by H12 to maintain MAP >85 mmHg: 1/6
[2]; mini-pig peritonitis, 5 mg/kg bolus then 1 mg/kg/h i.v.
  volume rescucitation: 6500 ± 800 mL
[2]; p=0.0005
  progressive lactic acidosis: largely attenuated
[2]; versus controls
  cardiac failure (cardiac index, cardiac power index, SvO2, DO2): significant beneficial effects in attenuating cardiac failure
  norepinephrine infusion rate needed to maintain blood pressure: significantly lower
